Entries after “also recorded” stand apart in the source; their conditions may differ. Like-named read-outs stand apart in the source and are kept apart here.
How the values were obtained:
[1] = test system: Asian patients with solid tumors; experiment: phase I dose escalation: dose-limiting toxicities, MTD and recommended dose; assay type: in vivo
Description: This was an open-label, phase I, multicenter study consisting of a dose-escalation phase (to determine the MTD of SAR) and a dose-expansion phase (to evaluate the antitumor activity of SAR at the RD in patients with MET-amplified tumors, including gastric cancer).
The model was run based on DLTs occurring during the first cycle of treatment.
SAR was administered by weekly intravenous infusion on days 1, 8, 15, and 22 of each 28–day cycle. The starting dose was 260 mg/m^2, and dose increments of 30% were made, to a maximum of 570 mg/m^2. Treatment continued until disease progression, unacceptable toxicity, or consent withdrawal. Patients were screened within 21 days before the first administration and followed for 30 days after the last administration.
A DLT was defined as grade 4 neutropenia for ≥ 7 consecutive days, febrile neutropenia, grade 4 thrombocytopenia or grade 3 thrombocytopenia with bleeding requiring a transfusion, any grade ≥ 3 nonhematologic event not easily managed or corrected by medical intervention, or SAR-related toxicity resulting in two or more missed doses.
The safety population consisted of all patients exposed to SAR, regardless of the amount of treatment administered.

[2] = phase I pharmacokinetics in blood (dried blood spot, LC-MS/MS, noncompartmental analysis); assay type: in vivo, human; settings: for fold increase in AUC0–168: 2.19-fold increase in dose (260 to 570 mg/m^2); for Cmax: blood; for AUC(0-t): read-out: AUC0–168
Description: Blood samples for pharmacokinetic analysis were acquired using dried blood-spot technology on days 1 and 22 of cycle 1 at several time points before, during, and after infusion (up to 168 hours after administration). Drug concentrations were determined by a validated method of liquid chromatography and tandem mass spectrometry (limit of quantification 2 ng/mL). Pharmacokinetic parameters were calculated using a noncompartmental analysis and included the maximum observed blood concentration (Cmax), AUC from 0 to infinity, AUC0–168, CL, CL after repeated administrations (CLss), volume of distribution at steady state (Vss), and the half-life associated with the terminal slope (t1/2z).

[3] = test system: solid tumors, including MET-amplified gastric cancer; experiment: phase I antitumor activity (RECIST 1.1); assay type: in vivo, human
Description: Tumor response was evaluated by the Response Evaluation Criteria In Solid Tumors version 1.1, which define complete response as disappearance of all target lesions, partial response and progressive disease as a minimally 30% decrease or 20% increase, respectively, in the sum of diameters of target lesions, and stable disease as neither sufficient shrinkage to qualify for partial response nor sufficient increase to qualify for progressive disease. Tumor burden was assessed from computerized tomography or magnetic resonance imaging scans performed at baseline, at the end of cycle 1, and every 8 weeks thereafter. Patients evaluable for efficacy received at least one cycle of SAR, with a minimum of two infusions, and had undergone efficacy assessment at baseline and once or more after that.
In the dose-expansion cohort, MET amplification in tumor tissue was evaluated by a FISH assay. A tumor was considered MET amplified if ≥ 10% of cells had more than four gene copies of MET and the MET:CEP7 ratio was ≥ 2. Total c-MET protein expression was evaluated by immunohistochemistry, calculating the percentage of tumor cells with an immunohistochemistry score of 2+ or 3+ membrane staining. […] Immunohistochemistry was performed on fresh or archival tumor tissue.

c-Met kinase = biological target: c-Met kinase; set-up: method as in PMID 25504634; settings: cited from earlier work
[4] = test system: xenograft models of MET-amplified human gastric tumors; set-up: method as in PMID 25504634; settings: cited from earlier work
[5] = human, whole blood (dried blood spot), intravenous, 260 mg/m2, 260 mg/m^2, cycle 1 Day 22, N = 2, mean
[6] = human, whole blood (dried blood spot), intravenous, 340 mg/m2, 340 mg/m^2, cycle 1 Day 1, N = 2, mean
[7] = human, whole blood (dried blood spot), intravenous, 340 mg/m2, 340 mg/m^2, cycle 1 Day 22, N = 3, mean ± SD
[8] = human, whole blood (dried blood spot), intravenous, 440 mg/m2, 440 mg/m^2, cycle 1 Day 1, n = 2, mean
[9] = human, whole blood (dried blood spot), intravenous, 440 mg/m2, 440 mg/m^2, cycle 1 Day 22, N = 3, mean ± SD
[10] = human, whole blood (dried blood spot), intravenous, 570 mg/m2, 570 mg/m^2, cycle 1 Day 1, n = 20, mean ± SD
[11] = human, whole blood (dried blood spot), intravenous, 570 mg/m2, 570 mg/m^2, cycle 1 Day 22, N = 17, mean ± SD
[12] = dose-expansion cohort (N = 19), 570 mg/m^2
[13] = two xenograft models, intravenous single-agent

## O=C(NCCN1CCOCC1)Nc1nc2ccc(Sc3nnc4ccc(-c5ccc(F)cc5)nn34)cc2s1 [SAR125844]
[1]; Asian patients, weekly i.v. infusion
  recommended dose (RD): 570 mg/m^2
[1]; dose-escalation cohort, 260–570 mg/m^2 weekly i.v.
  maximum tolerated dose (MTD): not reached
[1]; dose-escalation phase, listed as SAR
  dose-limiting toxicities (DLTs): No dose-limiting toxicities; also recorded: No DLTs
[1]; expansion cohort, 570 mg/m^2, of 19 patients, cycle 1, transaminase and creatinine increases
  patients with a DLT: one
[2]; day 1
  fold increase in AUC0–168: 3.00 fold
[2]; day 22
  fold increase in AUC0–168: 2.69 fold
[2]; four repeated once-weekly infusions
  accumulation between days 1 and 22: no accumulation
[2]; human, whole blood (dried blood spot), intravenous, 260 mg/m2, 260 mg/m^2, cycle 1 Day 1, N = 6, mean ± SD
  Cmax: 4140 ± 1070 ng/mL
[2]; human, whole blood (dried blood spot), intravenous, 260 mg/m2, 260 mg/m^2, cycle 1 Day 1, n = 5, mean ± SD
  AUC(0-t): 11800 ± 2960 ng·h/mL
[2]; human, whole blood (dried blood spot), intravenous, 260 mg/m2, 260 mg/m^2, cycle 1 Day 1, n = 5, mean ± SD, read-out: CL (converted)
  clearance: 608 mL/min
[2]; human, whole blood (dried blood spot), intravenous, 260 mg/m2, 260 mg/m^2, cycle 1 Day 1, n = 5, mean ± SD, read-out: Vss
  Vd: 232 ± 57.5 L
[2]; human, whole blood (dried blood spot), intravenous, 260 mg/m2, 260 mg/m^2, cycle 1 Day 1, n = 5, mean ± SD, read-out: t1/2z (converted)
  half-life: 12.6 ± 6.05 h
[2]; [5]
  AUC: 12600 ng·h/mL
  Cmax: 3550 ng/mL
  AUC(0-t): 12700 ng·h/mL
[2]; human, whole blood (dried blood spot), intravenous, 260 mg/m2, 260 mg/m^2, cycle 1 Day 22, N = 2, mean, read-out: CL (converted)
  clearance: 533 mL/min
[2]; human, whole blood (dried blood spot), intravenous, 260 mg/m2, 260 mg/m^2, cycle 1 Day 22, N = 2, mean, read-out: Vss
  Vd: 186 L
[2]; human, whole blood (dried blood spot), intravenous, 260 mg/m2, 260 mg/m^2, cycle 1 Day 22, N = 2, mean, read-out: t1/2z (converted)
  half-life: 12.6 h
[2]; human, whole blood (dried blood spot), intravenous, 260 mg/m2, AUC from 0 to infinity, 260 mg/m^2, cycle 1 Day 1, n = 5, mean ± SD
  AUC: 11800 ± 2950 ng·h/mL
[2]; [6]
  AUC: 16400 ng·h/mL
  Cmax: 4290 ng/mL
  AUC(0-t): 16400 ng·h/mL
[2]; human, whole blood (dried blood spot), intravenous, 340 mg/m2, 340 mg/m^2, cycle 1 Day 1, N = 2, mean, read-out: CL (converted)
  clearance: 565 mL/min
[2]; human, whole blood (dried blood spot), intravenous, 340 mg/m2, 340 mg/m^2, cycle 1 Day 1, N = 2, mean, read-out: Vss
  Vd: 246 L
[2]; human, whole blood (dried blood spot), intravenous, 340 mg/m2, 340 mg/m^2, cycle 1 Day 1, N = 2, mean, read-out: t1/2z (converted)
  half-life: 12.9 h
[2]; [7]
  AUC: 16500 ± 2390 ng·h/mL
  Cmax: 4700 ± 976 ng/mL
  AUC(0-t): 16500 ± 2390 ng·h/mL
[2]; human, whole blood (dried blood spot), intravenous, 340 mg/m2, 340 mg/m^2, cycle 1 Day 22, N = 3, mean ± SD, read-out: CL (converted)
  clearance: 557 mL/min
[2]; human, whole blood (dried blood spot), intravenous, 340 mg/m2, 340 mg/m^2, cycle 1 Day 22, N = 3, mean ± SD, read-out: Vss
  Vd: 291 ± 52.6 L
[2]; human, whole blood (dried blood spot), intravenous, 340 mg/m2, 340 mg/m^2, cycle 1 Day 22, N = 3, mean ± SD, read-out: t1/2z (converted)
  half-life: 20.6 ± 4.69 h
[2]; human, whole blood (dried blood spot), intravenous, 440 mg/m2, 440 mg/m^2, cycle 1 Day 1, N = 3, mean ± SD
  Cmax: 6390 ± 1010 ng/mL
[2]; [8]
  AUC: 22000 ng·h/mL
  AUC(0-t): 22100 ng·h/mL
[2]; human, whole blood (dried blood spot), intravenous, 440 mg/m2, 440 mg/m^2, cycle 1 Day 1, n = 2, mean, read-out: CL (converted)
  clearance: 530 mL/min
[2]; human, whole blood (dried blood spot), intravenous, 440 mg/m2, 440 mg/m^2, cycle 1 Day 1, n = 2, mean, read-out: Vss
  Vd: 202 L
[2]; human, whole blood (dried blood spot), intravenous, 440 mg/m2, 440 mg/m^2, cycle 1 Day 1, n = 2, mean, read-out: t1/2z (converted)
  half-life: 12.1 h
[2]; [9]
  AUC: 25400 ± 5300 ng·h/mL
  Cmax: 5840 ± 1420 ng/mL
  AUC(0-t): 25300 ± 5220 ng·h/mL
[2]; human, whole blood (dried blood spot), intravenous, 440 mg/m2, 440 mg/m^2, cycle 1 Day 22, N = 3, mean ± SD, read-out: CL (converted)
  clearance: 503 mL/min
[2]; human, whole blood (dried blood spot), intravenous, 440 mg/m2, 440 mg/m^2, cycle 1 Day 22, N = 3, mean ± SD, read-out: Vss
  Vd: 490 ± 366 L
[2]; human, whole blood (dried blood spot), intravenous, 440 mg/m2, 440 mg/m^2, cycle 1 Day 22, N = 3, mean ± SD, read-out: t1/2z (converted)
  half-life: 27.5 ± 8.24 h
[2]; human, whole blood (dried blood spot), intravenous, 570 mg/m2, 570 mg/m^2, cycle 1 Day 1, N = 21, mean ± SD
  Cmax: 6570 ± 1680 ng/mL
[2]; [10]
  AUC: 36200 ± 11800 ng·h/mL
  AUC(0-t): 36100 ± 11800 ng·h/mL
[2]; human, whole blood (dried blood spot), intravenous, 570 mg/m2, 570 mg/m^2, cycle 1 Day 1, n = 20, mean ± SD, read-out: CL (converted)
  clearance: 463 mL/min
[2]; human, whole blood (dried blood spot), intravenous, 570 mg/m2, 570 mg/m^2, cycle 1 Day 1, n = 20, mean ± SD, read-out: Vss
  Vd: 241 ± 55.3 L
[2]; human, whole blood (dried blood spot), intravenous, 570 mg/m2, 570 mg/m^2, cycle 1 Day 1, n = 20, mean ± SD, read-out: t1/2z (converted)
  half-life: 22.8 ± 9.47 h
[2]; [11]
  AUC: 35100 ± 15000 ng·h/mL
  Cmax: 6330 ± 1270 ng/mL
  AUC(0-t): 35100 ± 14900 ng·h/mL
[2]; human, whole blood (dried blood spot), intravenous, 570 mg/m2, 570 mg/m^2, cycle 1 Day 22, N = 17, mean ± SD, read-out: CL (converted)
  clearance: 482 mL/min
[2]; human, whole blood (dried blood spot), intravenous, 570 mg/m2, 570 mg/m^2, cycle 1 Day 22, N = 17, mean ± SD, read-out: Vss
  Vd: 287 ± 105 L
[2]; human, whole blood (dried blood spot), intravenous, 570 mg/m2, 570 mg/m^2, cycle 1 Day 22, N = 17, mean ± SD, read-out: t1/2z (converted)
  half-life: 21.2 ± 4.94 h
[2]; human, whole blood (dried blood spot), intravenous, 570 mg/m2, at the RD (570 mg/m^2), read-out: elimination half-life (converted)
  half-life: ~21 h
[2]; human, whole blood (dried blood spot), intravenous, 570 mg/m2, at the RD (570 mg/m^2), read-out: volume of distribution at steady state
  Vd: ~253 L
[2]; qualitative
  clearance: medium
[2]; statistical analysis, P = 0.25
  effect of dose on total body clearance (CL): no significant effect
[2]; statistical analysis, P = 0.79
  effect of dose on CL at steady state (CLs): no significant effect
[3]; dose-escalation cohort
  patients with early disease progression leading to treatment discontinuation in cycle 1: 11 patients
[3]; dose-escalation cohort (unselected population, N = 19)
  objective responses: No objective responses
[3]; dose-escalation cohort, 340 mg/m^2
  median time to tumor progression: 0.9 months
[3]; dose-escalation cohort, 440 mg/m^2
  median time to tumor progression: 1.7 months
[3]; dose-escalation cohort, after 1 month of treatment
  patients with stable disease: seven
[3]; dose-escalation cohort, after 1 month of treatment, listed as SAR
  patients with stable disease: 7 patients
[3]; [12]
  patients with progressive disease: 10 patients
  patients with stable disease: seven
[3]; dose-expansion cohort, MET-amplified tumors, 570 mg/m^2, two of 19 patients
  confirmed partial response / objective response rate: 10.5%
[3]; dose-expansion cohort, gastric cancer
  patients with unconfirmed partial response: one
[3]; dose-expansion cohort, median (range)
  median time to tumor progression: 0.92 (0.4–9) months
[3]; gastric cancer subpopulation of dose-expansion cohort, median (range)
  median time to tumor progression: 1.18 (0.4–9) months
[3]; gastric cancer subpopulation with MET amplification, two of 14 patients
  overall response rate (partial response rate): 14.3%
c-Met kinase; read-out: half-maximal inhibitory concentration
  IC50: 4.2 nM
c-Met kinase; read-out: inhibitory constant
  Ki: 2.8 nM
[4]; preclinical
  toxicity profile: acceptable toxicity profile
[4]; [13]
  c-Met kinase inhibition in xenograft tumors: c-Met kinase inhibition
  tumor regression: dose-dependent tumor regression
